Data from patent publication US6451798B2, “Substituted alkyl piperazine derivatives” (CV Therapeutics, Inc., priority 2000, dated 2002).

Tests used:
[1] = test system: mitochondrial fatty acid oxidation using palmitoyl carnitine as substrate; test: Palmitoyl carnitine oxidation in isolated rat heart mitochondria; format: biochemical; details: 15 min at 30° C.
Description: Rat heart mitochodria were isolated by the method of Nedergard and Cannon (Methods in Enzymol. 55, 3, 1979).
The Palmitoyl carnitine oxidation was carried out in a total volume of 100 microliters containing the following agents: 110 mM KCl, 33 mM Tris buffer at pH 8, 2 mM KPi, 2 mM MgCl2, 0.1 mM EDTA, 0.1 mg/ml of defatted BSA, 0.5 mM malic acid, 3 mM ADP, 52 micrograms of mitochondrial protein, and 43 microM 1-C14 palmitoyl carnitine (Sp. Activity 60 mCi/mmole; 20 microCi/ml, using 5 microliters per assay). The compounds of this invention were added in a DMSO solution at the following concentrations: 100 microM, 30 microM, and 3 microM. In each assay, a DMSO control was used. After 15 min at 30° C., the enzymatic reaction was centrifuged (20,000 g for 1 min), and 70 microliters of the supernatant was added to an activated reverse phase silicic acid column (approximately 0.5 ml of silicic acid). The column was eluted with 2 ml of water, and 0.5 ml of the eluent was used for scintillation counting to determine the amount of C^14 trapped as C^14 bicarbonate ion. The data are presented as % activity of control.

[2] = Metabolic stability in human liver S-9 fractions; details: for Liver S-9 stability factor: % parent remaining after 30 min at 37 C divided by average % ranolazine remaining (57%), 10 μM, human liver S9 2 mg/mL
Description: As a measure of metabolic stability the compounds of this invention were incubated with human liver S-9 microsomal fractions. After, 30 minutes at 37 C, the amount of parent drug remaining was determined using LC-mass spec. The response factors for each compound was determined by establishing a standard curve and using an internal standard during the analysis of the samples. […] The compounds of this invention were assayed as described in the protocol below and the percentage of parent remaining was divided by the average % of ranolazine remaining (57%) affording a metabolic stability factor.
The following reagents were used; Potassium phosphate, 0.5M pH 74. (incubation buffer), kept at room temperature; 0.05M MgCl2 kept at 4° C.; β-Nicotinamide adenine dinucleotide phosphate, tetrasodium salt, reduced form (NADPH), 0.02M solution in water (˜16.6 mg/mL) from Sigma Lot #79H7044 prepared on day of use.
Incubation mixtures were prepared as follows:
Combine all components with incubation buffer and re-pipette 200 μL/tube+25 μL of the compound being tested along with 25 μL of S-9.
After 5 min of pre-incubation at 37° C., at 0 and 30 min after starting the reaction, a 50 μl aliquot of the incubation mixture was removed and added to 100 μL of 9:1 acetonitrile: methanol containing the internal standard.
The mixture was centrifuged and a 100 μL aliquot of the supernatant was diluted in 1 mL of solvent C (0.1% Formic Acid in water). Then samples were analyzed for change between the ratio of compound to internal standard at time zero and 30 minutes by LC/MS (injected 10 μL).
Samples were analyzed for the starting compounds and potential metabolite/s by LC/MS using an internal standard on a Micromass platform mass spec with a Keystone Inc. BDS ODS-C18 column with a flow rate of 0.25 ml/min.

| Compound | Liver S-9 stability factor [2] | further results |
| --- | --- | --- |
| Cc1cccc(C)c1NC(=O)CN1CCN(CC(O)COC(C)C)CC1 (stereo not drawn) [Compound 10] | – | Mitochondrial fatty acid oxidation activity (% of control) ([1]; 100 μM compound): 80% |
| Cc1cccc(C)c1NC(=O)CN1CCN(CC(O)COC2CCCC2)CC1 (stereo not drawn) [Compound 12] | 1.48 | – |
| Cc1cccc(C)c1NC(=O)CN1CCN(CC(O)COC2CCCCC2)CC1 (stereo not drawn) [Compound 13] | 1.20 | – |
| Cc1cccc(C)c1NC(=O)CN1CCN(CC(O)COCc2ccc(C(F)(F)F)cc2)CC1 (stereo not drawn) [Compound 17, N-(2,6-dimethylphenyl)-2-[4-(2-hydroxy-3-{[4-(trifluoromethyl)phenyl]methoxy}propyl)piperazinyl]acetamide] | 1.0 | – |

Now from value to compound, other results behind:

| Liver S-9 stability factor [2] | Compound | further results |
| --- | --- | --- |
| 1.0 | COc1ccccc1OCC(O)CN1CCN(CC(=O)Nc2c(C)cccc2C)CC1 (racemic) [Ranolazine, (±)-N-(2,6-dimethylphenyl)-4-[2-hydroxy-3-(2-methoxyphenoxy)propyl]-1-piperazineacetamide, reference compound] | Mitochondrial fatty acid oxidation activity (% of control) ([1]; 30 μM compound): 98%; Mitochondrial fatty acid oxidation activity (% of control) ([1]; 100 μM compound): 63%; percentage of parent drug remaining at the 30 minute time point ([2]; human liver S-9, 30 minutes at 37 C, average of five experiments): 57% |
| 0.61 | Cc1ccc(COCC(O)CN2CCN(CC(=O)Nc3c(C)cccc3C)CC2)cc1 (stereo not drawn) [Compound 22, N-(2,6-dimethylphenyl)-2-(4-{2-hydroxy-3-[(4-methylphenyl)methoxy]propyl}piperazinyl)acetamide] | – |
| 0.05 | Cc1cccc(C)c1NC(=O)CN1CCN(CC(O)COCc2ccc(-c3ccccc3)cc2)CC1 (stereo not drawn) [Compound 23, N-(2,6-dimethylphenyl)-2-(4-{2-hydroxy-3-[(4-phenylphenyl)methoxy]propyl}piperazinyl)acetamide] | – |
| 0.02 | CCCCc1ccc(COCC(O)CN2CCN(CC(=O)Nc3c(C)cccc3C)CC2)cc1 (stereo not drawn) [Compound 24, N-(2,6-dimethylphenyl)-2-(4-{3-[(4-butylphenyl)methoxy]-2-hydroxypropyl}piperazinyl)acetamide] | – |
| 0.01 | Cc1cccc(C)c1NC(=O)CN1CCN(CC(O)COCc2ccc3ccccc3c2)CC1 (stereo not drawn) [Compound 25, N-(2,6-dimethylphenyl)-2-{4-[2-hydroxy-3-(2-naphthylmethoxy)propyl]piperazinyl}acetamide] | – |
